Laboratory results: patent publication US7745446B2, “Pyrazolo[1,5-c]pyrimidines” (Bayer Schering Pharma Aktiengesellschaft, priority 2004, dated 2010)

Experiments:
[1] = system: MCF7 cells; assay: Cellular proliferation/cytotoxicity assay (Alamar Blue), MCF7; conditions: Homo sapiens, MCF7, 48 h, read-out: Anti-proliferative/cytotoxic activity: IC50 MCF7
Method: (§1) The anti-proliferative activity of the compounds as described herein, is evaluated using MCF7 and MDA-MB-468 (ATCC HTB-22 and HTB-132) cell lines and the Alamar Blue (Resazurin) cell viability assay (O'Brien et al. Eur J Biochem 267, 5421-5426, 2000). Resazurin is reduced to the fluorescent resorufin by cellular dehydrogenase activity, correlating with viable, proliferating cells. Test compounds are dissolved as 10 mM solutions in DMSO and subsequently diluted. MCF7 or MDA-MB-434 cells were seeded into 96 well flat bottom plates at a density of 10000 cells/well (MCF7) or 5000 cells/well (MDA-MB-468) in a volume of 200 μl/well. 24 hours after seeding, 1 μl each of the compound dilutions are added into each well of the 96 well plates. Each compound dilution is tested as at least as duplicates. Wells containing untreated control cells were filled with 200 μl DMEM containing 0.5% v:v DMSO. The cells are then incubated with the substances for 48 hours at 37° C. in a humidified atmosphere containing 5% carbon dioxide. To determine cell viability, 20 μl of a Resazurin solution (Sigma; 90 mg/l) are added. After 4 hours incubation at 37° C. the fluorescence is measured at an extinction of 544 nm and an emission of 590 nm (Wallac Victor2; Perkin Elmer, USA). For the calculation of the cell viability the emission value from untreated cells is set as 100% viability and the emission rates of treated cells are set in relation to the values of untreated cells. Viabilities are expressed as % values. The corresponding IC50 values of the compounds for cytotoxic activity are determined from the concentration-effect curves by means of non-linear regression. The analysis of the data is performed using a biostatistical program (GraphPad Prism, USA).

[2] = system: MDA-MB-468 cells; assay: Cellular proliferation/cytotoxicity assay (Alamar Blue), MDA-MB-468; conditions: Homo sapiens, MDA-MB-468, 48 h, read-out: Anti-proliferative/cytotoxic activity: IC50 MDA468
Method: as §1

[3] = target: T1, GST-ΔPH-Akt1 (Homo sapiens, UniProt P31749); assay: Biochemical ΔPH Akt1 assay (flashplate, 33P incorporation into histone 2B); conditions: 100 nM ATP, histone 2B substrate; read-out: ΔPHAkt1 inhibition: IC50
T1 construct: named GST-deltaPH-Akt1; 107-480aa; cloned in the pAcGl vector; GST (N); made in house; host or cells: SF9 insect cells (baculovirus vector pAcG1), co-expressed with PDK1
Source text: For the biochemical assay ΔPHAkt1 is used devoid of its PH domain as a GST fusion protein (named GST-deltaPH-Akt1; 107-480aa; cloned in the pAcGl vector (BD Biosciences Pharmingen)), co-expressed with PDK1 in SF9 insect cells. The protein is purified using glutathion-affinity chromatography by standard protocols.
In order to study the inhibition of Akt according to the invention, a flashplate-based assay has been developed.
The Akt1 assay is a biochemical assay using Akt1 devoid of its PH domain and co-expressed with PDK1 in insect cells. The GST-ΔPH-Akt1 assay is run in 96 well plates by incubating 100 ng/well GST-ΔPH-Akt1, 100 ng/well histone 2B (Roche, #223514) as substrate, 10 μl of compound of invention (test compounds were dissolved as 10 mM solutions in dimethylsulfoxide (DMSO) and subsequently diluted) and 100 nM ATP (including ^33P-ATP) in 100 μl of reaction buffer ([…], pH7,5; 3 mM MgCl2; 3 mM MnCl2; 3 μM Na-Orthovanadat; 1 mM DTT; 1 μg/ml PEG8000) for 80 minutes at 30° C. The reactions are terminated by adding 100 μl stopping buffer (2% H3PO4 for 5 minutes) and are washed 3 times by using washing buffer (0.9% NaCl). Relying on the incorporation of ^33P into the protein substrate histone 2B, the detection is based on the adhesion of the phosphorylated protein to the surface of scintillator-coated flash plates (NEN, USA; #SMP-200). This phosphorylation is measured by counting the plate for 60 sec. using a plate reader (Wallac Microbeta; Perkin Elmer, USA).

T1 sequence (P31749 107-480, stated change not applied): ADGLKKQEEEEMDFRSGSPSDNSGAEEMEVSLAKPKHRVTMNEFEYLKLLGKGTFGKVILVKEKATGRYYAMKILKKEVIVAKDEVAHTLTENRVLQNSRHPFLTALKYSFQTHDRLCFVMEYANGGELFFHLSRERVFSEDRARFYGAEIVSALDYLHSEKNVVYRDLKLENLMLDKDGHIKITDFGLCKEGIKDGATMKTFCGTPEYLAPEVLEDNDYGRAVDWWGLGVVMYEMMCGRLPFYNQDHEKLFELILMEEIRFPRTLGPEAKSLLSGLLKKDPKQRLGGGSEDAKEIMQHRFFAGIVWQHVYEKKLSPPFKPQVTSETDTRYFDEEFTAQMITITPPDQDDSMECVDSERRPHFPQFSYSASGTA

| SMILES | IC50 [3] | IC50 [1] | IC50 [2] |
| --- | --- | --- | --- |
| CN1CCN(Cc2ccc(C(=O)Nc3ccc(Nc4nc(-c5cccc(Br)c5)cc5ccnn45)cc3)cc2)CC1 [Example 2, N-{4-[5-(3-Bromo-phenyl)-pyrazolo[1,5-c]pyrimidin-7-ylamino]-phenyl}-4-(4-methyl-piperazin-1-ylmethyl)-benzamide] |  | ≤ 16.9 µM | ≤ 13.6 µM |
| NCc1ccc(C(=O)Nc2cccc(Nc3nc(-c4cccc5c4oc4ccccc45)cc4ccnn34)c2)cc1 [Example 17, 4-Aminomethyl-N-[3-(5-dibenzofuran-4-yl-pyrazolo[1,5-c]pyrimidin-7-ylamino)-phenyl]-benzamide] | ≤ 1.75 µM | ≤ 16.9 µM | ≤ 13.6 µM |
| NCc1cccc(C(=O)Nc2cccc(Nc3nc(-c4cccc5c4oc4ccccc45)cc4ccnn34)c2)c1 [Example 18, 3-Aminomethyl-N-[3-(5-dibenzofuran-4-yl-pyrazolo[1,5-c]pyrimidin-7-ylamino)-phenyl]-benzamide] | ≤ 1.75 µM | ≤ 16.9 µM | ≤ 13.6 µM |
| NCc1ccc(C(=O)Nc2ccc(Nc3nc(-c4cccc5c4oc4ccccc45)cc4ccnn34)cc2)cc1 [Example 19, 4-Aminomethyl-N-[4-(5-dibenzofuran-4-yl-pyrazolo[1,5-c]pyrimidin-7-ylamino)-phenyl]-benzamide] | ≤ 1.75 µM | ≤ 16.9 µM | ≤ 13.6 µM |
| NCCc1ccc(C(=O)Nc2cccc(Nc3nc(-c4cccc5c4oc4ccccc45)cc4ccnn34)c2)cc1 [Example 21, 4-(2-Amino-ethyl)-N-[3-(5-dibenzofuran-4-yl-pyrazolo[1,5-c]pyrimidin-7-ylamino)-phenyl]-benzamide] | ≤ 1.75 µM |  |  |
| NCCCC(=O)Nc1cccc(Nc2nc(-c3cccc4c3oc3ccccc34)cc3ccnn23)c1 [Example 22, 4-Amino-N-[3-(5-dibenzofuran-4-yl-pyrazolo[1,5-c]pyrimidin-7-ylamino)-phenyl]-butyramide] | ≤ 1.75 µM |  |  |
| NCc1ccc(C(=O)Nc2ccc(Nc3nc(-c4ccc5cc(O)ccc5c4)cc4ccnn34)cc2)cc1 [Example 44, 4-Aminomethyl-N-{4-[5-(6-hydroxy-naphthalen-2-yl)-pyrazolo[1,5-c]pyrimidin-7-ylamino]-phenyl}-benzamide] | ≤ 1.75 µM |  |  |
| COc1ccc2cc(-c3cc4ccnn4c(Nc4ccc(NC(=O)c5ccc(CN)cc5)cc4)n3)ccc2c1 [Example 45, 4-Aminomethyl-N-{4-[5-(6-methoxy-naphthalen-2-yl)-pyrazolo[1,5-c]pyrimidin-7-ylamino]-phenyl}-benzamide] | ≤ 1.75 µM | ≤ 16.9 µM | ≤ 13.6 µM |
| NCc1ccc(C(=O)Nc2ccc(Nc3nc(-c4cccc(-c5ccccc5)c4)cc4ccnn34)cc2)cc1 [Example 71, 4-Aminomethyl-N-[4-(5-biphenyl-3-yl-pyrazolo[1,5-c]pyrimidin-7-ylamino)-phenyl]-benzamide] | ≤ 2.45 µM |  |  |
| CC(=O)Nc1cccc(-c2cccc(-c3cc4ccnn4c(Nc4ccc(NC(=O)c5ccc(CN)cc5)cc4)n3)c2)c1 [Example 73, N-{4-[5-(3′-Acetylamino-biphenyl-3-yl)-pyrazolo[1,5-c]pyrimidin-7-ylamino]-phenyl}-4-aminomethyl-benzamide] | ≤ 2.45 µM |  |  |
| COc1cccc(-c2ccc(-c3cc4ccnn4c(Nc4ccc(NC(=O)c5ccc6c(c5)CCNC6)cc4)n3)cc2)c1 [Example 77, 1,2,3,4-Tetrahydro-isoquinoline-6-carboxylic acid {4-[5-(3′-methoxy-biphenyl-4-yl)-pyrazolo[1,5-c]pyrimidin-7-ylamino]-phenyl}amide] | ≤ 1.75 µM |  |  |
| CC(=O)Nc1cccc(-c2ccc(-c3cc4ccnn4c(Nc4ccc(NC(=O)c5ccc(CCN)cc5)cc4)n3)cc2)c1 [Example 82, N-{4-[5-(3′-Acetylamino-biphenyl-4-yl)-pyrazolo[1,5-c]pyrimidin-7-ylamino]-phenyl}-4-(2-amino-ethyl)-benzamide] | ≤ 1.75 µM |  |  |
| CC(=O)Nc1cccc(-c2ccc(-c3cc4ccnn4c(Nc4ccc(NC(=O)c5ccc6c(c5)CCNC6)cc4)n3)cc2)c1 [Example 83, 1,2,3,4-Tetrahydro-isoquinoline-6-carboxylic acid {4-[5-(3′-acetylamino-biphenyl-4-yl)-pyrazolo[1,5-c]pyrimidin-7-ylamino]-phenyl}-amide] |  | ≤ 16.9 µM | ≤ 13.6 µM |
| NCCc1ccc(C(=O)Nc2ccc(Nc3nc(-c4ccc(Br)cc4)cc4ccnn34)cc2)cc1 [Example 84, 4-(2-Amino-ethyl)-N-{4-[5-(4-bromo-phenyl)-pyrazolo[1,5-c]pyrimidin-7-ylamino]-phenyl}-benzamide] | ≤ 1.75 µM |  |  |
| COc1cccc(-c2ccc(-c3cc4c(Br)cnn4c(Nc4ccc(NC(=O)c5ccc(CCN)cc5)cc4)n3)cc2)c1 [Example 86, 4-(2-Amino-ethyl)-N-{4-[3-bromo-5-(3′-methoxy-biphenyl-4-yl)-pyrazolo[1,5-]pyrimidin-7-ylamino]-phenyl}-benzamide] | ≤ 1.75 µM |  |  |
| COc1ccc(-c2ccc(-c3cc4c(Br)cnn4c(Nc4ccc(NC(=O)c5ccc(CN)cc5)cc4)n3)cc2)cc1 [Example 88, 4-Aminomethyl-N-{4-[3-bromo-5-(4′-methoxy-biphenyl-4-yl)-pyrazolo[1,5-c]pyrimidin-7-ylamino]-phenyl}-benzamide] | ≤ 1.75 µM |  |  |
| NCc1ccc(C(=O)Nc2ccc(Nc3nc(-c4cccc5c4oc4ccccc45)cc4c(Br)cnn34)cc2)cc1 [Example 91, 4-Aminomethyl-N-[4-(3-bromo-5-dibenzofuran-4-yl-pyrazolo[1,5-c]pyrimidin-7-ylamino) -phenyl]-benzamide] | ≤ 1.75 µM |  |  |

Now from value to compound, other results behind:

| IC50 [3] | SMILES | IC50 [1] | IC50 [2] |
| --- | --- | --- | --- |
| ≤ 1.75 µM | Nc1ccc(C(=O)Nc2ccc(Nc3nc(-c4cccc5c4oc4ccccc45)cc4ccnn34)cc2)cc1 [Example 6, 4-Amino-N-[4-(5-dibenzofuran-4-yl-pyrazolo[1,5-c]pyrimidin-7-ylamino)-phenyl]-benzamide] |  |  |
| ≤ 2.45 µM | CC(C)(C)c1ccc(C(=O)Nc2ccc(Nc3nc(-c4cccc5c4oc4ccccc45)cc4ccnn34)cc2)cc1 [Example 10, 4-tert-Butyl-N-[4-(5-dibenzofuran-4-yl-pyrazolo[1,5-c]pyrimidin-7-ylamino)-phenyl]-benzamide] |  |  |
| ≤ 2.45 µM | O=C(Cc1cccc(Cl)c1)Nc1ccc(Nc2nc(-c3cccc4c3oc3ccccc34)cc3ccnn23)cc1 [Example 12, 2-(3-Chloro-phenyl)-N-[4-(5-dibenzofuran-4-yl-pyrazolo[1,5-c]pyrimidin-7-ylamino) -phenyl]-acetamide] |  |  |
| ≤ 1.75 µM | NCc1cccc(C(=O)Nc2ccc(Nc3nc(-c4cccc5c4oc4ccccc45)cc4ccnn34)cc2)c1 [Example 20, 3-Aminomethyl-N-[4-(5-dibenzofuran-4-yl-pyrazolo[1,5-c]pyrimidin-7-ylamino)-phenyl]-benzamide] | ≤ 16.9 µM | ≤ 13.6 µM |
| ≤ 1.75 µM | COc1ccc(-c2cccc(-c3cc4ccnn4c(Nc4ccc(NC(=O)c5ccc(CN)cc5)cc4)n3)c2)cc1 [Example 72, 4-Aminomethyl-N-{4-[5-(4′-methoxy-biphenyl-3-yl)-pyrazolo[1,5-c]pyrimidin-7-ylamino]-phenyl}-benzamide] |  |  |
| ≤ 2.45 µM | COc1cccc(-c2cccc(-c3cc4ccnn4c(Nc4ccc(NC(=O)c5ccc(CN)cc5)cc4)n3)c2)c1 [Example 74, 4-Aminomethyl-N-{4-[5-(3′-methoxy-biphenyl-3-yl)-pyrazolo[1,5-c]pyrimidin-7-ylamino]-phenyl}-benzamide] |  |  |
| ≤ 1.75 µM | NCCc1ccc(C(=O)Nc2ccc(Nc3nc(-c4ccc(-c5ccc(F)cc5)cc4)cc4ccnn34)cc2)cc1 [Example 75, 4-(2-Amino-ethyl)-N-{4-[5-(4′-fluoro-biphenyl-4-yl)-pyrazolo[1,5-c]pyrimidin-7-ylamino]-phenyl}-benzamide] |  |  |
| ≤ 1.75 µM | O=C(Nc1ccc(Nc2nc(-c3ccc(-c4ccc(F)cc4)cc3)cc3ccnn23)cc1)c1ccc2c(c1)CCNC2 [Example 76, 1,2,3,4-Tetrahydro-isoquinoline-6-carboxylic acid {4-[5-(4′-fluoro-biphenyl-4-yl)-pyrazolo[1,5-c]pyrimidin-7-ylamino]-phenyl}amide] |  |  |
| ≤ 1.75 µM | NCc1ccc(C(=O)Nc2ccc(Nc3nc(-c4ccc(-c5ccc(F)cc5)cc4)cc4c(Br)cnn34)cc2)cc1 [Example 89, 4-Aminomethyl-N-{4-[3-bromo-5-(4′-fluoro-biphenyl-4-yl)-pyrazolo[1,5-c]pyrimidin-7-ylamino]-phenyl}-benzamide] |  |  |
| ≤ 1.75 µM | CC(=O)Nc1cccc(-c2ccc(-c3cc4c(Br)cnn4c(Nc4ccc(NC(=O)c5ccc(CN)cc5)cc4)n3)cc2)c1 [Example 90, N-{4-[5-(3′-Acetylamino-biphenyl-4-yl)-3-bromo-pyrazolo[1,5-c]pyrimidin-7-ylamino]-phenyl}-4-aminomethyl-benzamide] |  |  |
